Data on 2 molecules can be found in patent publication US7608289B2, “Food supplemented with a carnitine, suitable for stimulating the biosynthesis of polyunsaturated fatty acids from the saturated fatty acids contained in the food” (Sigma-Tau Industrie Farmaceutiche Riunite S.p.A., priority 1999, dated 2009).

Test [1] in a line: Plasma lipid test: polyunsaturated to saturated fatty acid ratio in rabbits on milk diet plus carnitines. Type of test: in vivo, New Zealand male rabbits. To be noted: plasma lipids, carnitines given with milk diet, compared to controls. An excerpt: (§1) For these tests a batch of New Zealand male rabbits with a mean body weight of 3.7 kg was used, which, after a period of acclimatisation on a standard diet for eight days, were divided into different groups. One group received standard diet alone, while a second group received unskimmed milk mixed with pellets of the normal diet whose final composition was as follows: 4% fats, 24% proteins, 58% carbohydrates, 0.7% fibre, 10% water, 3% minerals and 1% vitamins. […]
(§2) After four weeks of treatment, blood samples were taken from the marginal vein of the ear and the plasma lipids obtained were subjected to measurement of the percentages of both saturated fatty acids and polyunsaturated fatty acids. The percentage amounts of unsaturated omega-3 fatty acids present in liver samples taken from the same animals were also measured. While total lipids were measured according to the method described by Schanfeld (Schanfeld G., J. Clin. Invest., 226:497, 1957) and Folch (Folch J., J. Biol. Chem., 226:497, 1957), the triglycerides and phospholipids were measured according to the method described by Terstra (Terstra A. H. M., Anal. Biochem., 11:149, 1981) and the n-3 and n-6 fatty acids according to the method described by Nestel (Nestel P. J., Ann. Rev. Nutr., 10:149, 1990) and Cevec (Cevec G., Biochemistry, 30:7:7186, 1991).

Test [2] in a line: n-3 and n-6 fatty acids in hepatic phospholipids of rabbits on the diets. Type of test: in vivo, New Zealand male rabbits. The settings on record: liver specimens, carnitines added to the milk diet.
Description: as §1, §2

For the molecule `CC(=O)O[C@H](CC(=O)[O-])C[N+](C)(C)C` [acetyl L-carnitine], in test [1], the “change of the ratio of polyunsaturated to saturated fatty acids (in words)” value is listed as “particularly evident”.

Take `CCC(=O)O[C@H](CC(=O)[O-])C[N+](C)(C)C` [propionyl L-carnitine]: the “change of the ratio of polyunsaturated to saturated fatty acids (in words)” value in test [1] is recorded as “particularly evident”. The “increase in n-3 fatty acids / improvement of n-3 to n-6 ratio in liver (in words)” value in test [2] was “most active compound”.
